Measurements published in patent US20160177395A1, “BIOMARKERS FOR THE PREDICTION OF RENAL INJURY” (priority 2007, published 2016).
Values joined by “and” are separate entries in the source; they are usually repeats but may differ in a detail not shown here. Identical values can stand only once.

System: kidney tissues of treated or untreated rats
Test: Real-time qRT-PCR of marker transcripts in kidney tissue panel, discovery stage (Table 22)
Type: in vivo, rat
Settings: listed as Dox; for normalized Real Time PCR MMU09507_DB81_seg15: kidney; for H33998_DB71_seg19 normalized Real Time PCR / MUSCYCG1R_DB81_seg15-17 normalized Real Time PCR / RATLRFI_DB71_seg9 normalized Real Time PCR / RATRAB13X_DB71_seg11-13 normalized Real Time PCR / RNU24174_DB71_seg8 normalized Real Time PCR / W41270_DB81_seg11 normalized Real Time PCR / W64472_DB81_seg2 normalized Real Time PCR / W83813_DB81_seg27 normalized Real Time PCR / AA686189_DB71_seg6 normalized Real Time PCR expression / AI045075_DB71_seg6 normalized Real Time PCR expression / AI454051_DB71_seg0 normalized Real Time PCR expression / H31045_DB71_seg5 normalized Real Time PCR expression: rat kidney
Description: Before RT preparation the RNA was treated with DNA-free (Ambion, cat. No. AM1906) DNase treatment and removal—according to manufacturer protocol. DNase procedure was repeated until no DNA is detected in a PCR reaction using the RNA samples.
The mixture is then incubated for 5 min at 65° C. and then quickly chilled on ice. Thereafter, 20 μl of 5× SuperscriptII first strand buffer (Invitrogen, Cat. No. Y00146), 9.6 μl 0.1M DTT (Invitrogen, Cat. No. Y00147) and 160 units RNasin (Promega, Cat. No. N251A) are added, and the mixture is incubated for 10 min at 25° C., followed by further incubation at 42° C. for 2 min. […] The resulting cDNA is diluted 1:20 in TE buffer (10 mM Tris pH=8, 1 mM EDTA pH=8).
cDNA (5 μl), prepared as described above, is used as a template in Real-Time PCR reactions using the SYBR Green I assay (PE Applied Biosystem) with specific primers in 100 nM concentration if not indicated otherwise and UNG Enzyme (Eurogentech or equal) Amplification is effected as follows: 50° C. for 2 min, 95° C. for 10 min, and then 40 cycles of 95° C. for 15 sec, followed by 60° C. for 1 min (if not indicated otherwise). Amplification step is followed by dissociation step. Detection is performed by using the PE Applied Biosystem SDS 7000. The cycle in which the reactions achieved a threshold level (Ct) of fluorescence is registered and is used to calculate the relative transcript quantity in the RT reactions. Non-detected samples are assigned Ct value of 41 and are calculated accordingly. The relative quantity is calculated using the equation Q=efficiencŷ-Ct. The efficiency of the PCR reaction is calculated from a standard curve, created by using serial dilutions of several reverse transcription (RT) reactions. To minimize inherent differences in the RT reaction, the resulting relative quantities are normalized to normalization factor calculated as follows: […]
The relative quantity (Q) of each housekeeping gene in each sample is calculated as described above. In order to calculate the “relative Q relative to MED” each Q for each HSKP gene is divided by the median quantity of this gene in all panel samples. To finally achieve the normalization factor of each sample the geometric mean of all four “relative Q relative to MED” was calculated. The normalization factor was then used for further calculations.
The markers of the present invention were tested with regard to their expression in a panel of kidney tissues samples from treated and control rats. Unless otherwise noted, all experimental data relates to the novel polynucleotides and proteins of the present invention, named according to the segment being tested (as expression was tested through RT-PCR as described). Tests were then performed as described in the “Materials and Experimental Procedures” section above.
The qRT-PCR measurements were normalized according to each samples normalization factor as described in “RT Preparation and Real-Time qRT-PCR Analysis” and further multiplied by a constant factor for ease of viewing.

[1] = day1, individual animals (F and M)
[2] = day5, individual animals (F and M)
[3] = day28, individual animals (F and M)

## COc1cccc2c1C(=O)c1c(O)c3c(c(O)c1C2=O)C[C@@](O)(C(=O)CO)C[C@@H]3O[C@H]1C[C@H](N)[C@H](O)[C@H](C)O1 [Doxorubicin]
Female rats, day1
  normalized Real Time PCR MMU09507_DB81_seg15: 0.48 and 0.52 and 0.93
Female rats, day5
  normalized Real Time PCR MMU09507_DB81_seg15: 2.07 and 1.46 and 1.82
Female rats, day28
  normalized Real Time PCR MMU09507_DB81_seg15: 4.47 and 2.99 and 2.89
Male rats, day1
  normalized Real Time PCR MMU09507_DB81_seg15: 0.74 and 0.71 and 0.59
Male rats, day5
  normalized Real Time PCR MMU09507_DB81_seg15: 1.74 and 1.67
Male rats, day28
  normalized Real Time PCR MMU09507_DB81_seg15: 3.04 and 2.93 and 2.13
[1]
  H33998_DB71_seg19 normalized Real Time PCR: 1.25 and 1.34 and 2.14 and 0.97 and 1.07 and 2.75
  MUSCYCG1R_DB81_seg15-17 normalized Real Time PCR: 1.66 and 1.12 and 1.36 and 0.56 and 0.64 and 0.66
  RATLRFI_DB71_seg9 normalized Real Time PCR: 0.25 and 0.21 and 0.31 and 0.46 and 0.48 and 0.24
  RATRAB13X_DB71_seg11-13 normalized Real Time PCR: 1.1 and 0.9 and 1 and 0.88 and 1.09 and 0.86
  RNU24174_DB71_seg8 normalized Real Time PCR: 0.29 and 0.35 and 0.31 and 0.48 and 0.49 and 0.36
  W41270_DB81_seg11 normalized Real Time PCR: 2.24 and 1.2 and 1.56 and 1.74 and 0.95 and 0.91
  W64472_DB81_seg2 normalized Real Time PCR: 1.58 and 1.09 and 1.15 and 0.86 and 0.77 and 0.56
  W83813_DB81_seg27 normalized Real Time PCR: 2.9 and 1.56 and 2 and 0.68 and 0.78 and 0.64
day1, individual animals
  AA686189_DB71_seg6 normalized Real Time PCR expression: 0.59 and 0.49 and 0.39 and 0.78 and 0.4 and 0.26
  AI045075_DB71_seg6 normalized Real Time PCR expression: 1.12 and 1.21 and 0.78 and 0.61 and 0.64 and 3.12
  AI454051_DB71_seg0 normalized Real Time PCR expression: 1.2 and 1.05 and 1.54 and 0.8 (2×) and 1.03
  H31045_DB71_seg5 normalized Real Time PCR expression: 1.15 and 0.3 and 1.95 and 0.23 and 0.32 and 0.75
[2]
  H33998_DB71_seg19 normalized Real Time PCR: 2.39 and 1.29 and 3.68 and 1.19 and 1.37
  MUSCYCG1R_DB81_seg15-17 normalized Real Time PCR: 1.51 and 1.97 and 3.17 and 1.65 and 2
  RATLRFI_DB71_seg9 normalized Real Time PCR: 0.46 and 0.29 and 0.18 and 0.47 and 0.25
  RATRAB13X_DB71_seg11-13 normalized Real Time PCR: 1.17 and 1.16 and 0.94 and 0.7 and 0.83
  RNU24174_DB71_seg8 normalized Real Time PCR: 0.83 and 0.59 and 0.63 and 1.08 and 0.87
  W41270_DB81_seg11 normalized Real Time PCR: 1.71 and 1.37 and 2.13 and 1.64 and 1.35
  W64472_DB81_seg2 normalized Real Time PCR: 1.97 and 1.36 and 2.36 and 3 and 2.54
  W83813_DB81_seg27 normalized Real Time PCR: 2.28 and 1.99 and 2.9 and 1.3 and 1.41
day5, individual animals
  AA686189_DB71_seg6 normalized Real Time PCR expression: 1.2 and 0.6 and 0.51 and 0.48 and 0.38
  AI045075_DB71_seg6 normalized Real Time PCR expression: 0.93 (2×) and 2.05 and 0.76 and 0.57
  AI454051_DB71_seg0 normalized Real Time PCR expression: 1.17 and 1.35 and 1.44 and 0.3 and 0.95
  H31045_DB71_seg5 normalized Real Time PCR expression: 1.86 and 1.19 and 0.52 and 0.35 and 1.41
[3]
  H33998_DB71_seg19 normalized Real Time PCR: 0.48 and 0.58 and 0.96 and 0.64 and 0.44 and 0.54
  MUSCYCG1R_DB81_seg15-17 normalized Real Time PCR: 1.07 and 1.52 and 1.26 and 0.99 and 0.98 and 1.28
  RATLRFI_DB71_seg9 normalized Real Time PCR: 0.72 and 0.4 and 1.47 and 8.34 and 0.53 and 1.08
